Read-outs that look alike come from different tables or passages of the source.
Legend:
[1] = cited from earlier work
[2] = summary table; cited from earlier work
[3] = system: proteasome subunits; conditions: summary table; cited from earlier work
[4] = system: CYP450 isozyme 2D6; conditions: human liver microsomes (~7 µg/mL); cited from earlier work
[5] = system: CYP450 isozyme 2C9; conditions: human liver microsomes (~7 µg/mL); cited from earlier work
[6] = system: CYP450 isozyme 3A4; conditions: human liver microsomes (~7 µg/mL); cited from earlier work
[7] = summary table; cited from earlier work; remark: listed apart in the source
[8] = Bortezomib plasma pharmacokinetics in patients; format: in vivo, human; conditions: CYP IC50 vs Cmax at 1.3 mg/m2
Method: The relationship between plasma concentration and proteasome inhibition was assessed at 1, 6, and 24 h over a 24-hour period.

[9] = system: CYP450 isozyme 2C19; conditions: human liver microsomes (~7 µg/mL); cited from earlier work
[10] = system: CYP450 isozyme 1A2; conditions: human liver microsomes (~7 µg/mL); cited from earlier work
[11] = system: 20S proteasome; conditions: cited from earlier work; for inhibition of 20S proteasome activity: patients, single agent, after 1-h treatment
[12] = system: β5 subunit of the constitutive proteasome; conditions: patients, doses ≥15 mg/m2; cited from earlier work
[13] = in vivo; cited from earlier work
[14] = human, in vivo, iv; cited from earlier work
[15] = in vivo; cited from earlier work; remark: listed apart in the source
[16] = system: proteasome CT-L activity; conditions: following the first dose for each week of dosing; cited from earlier work
[17] = system: β2; design: method as in PMID 20110052; conditions: whole blood, doses as high as 45 mg/m2; cited from earlier work
[18] = system: LMP7 subunit of the immunoproteasome; conditions: patients, doses ≥15 mg/m2; cited from earlier work
[19] = system: β1; design: method as in PMID 20110052; conditions: whole blood, doses as high as 45 mg/m2; cited from earlier work
[20] = system: CYP1A2; conditions: at higher concentrations, recombinant CYP microsomes; cited from earlier work
[21] = system: CYP3A4; conditions: at higher concentrations, recombinant CYP microsomes; cited from earlier work
[22] = system: proteasome; design: method as in PMID 30117017; conditions: whole blood, IV administration; cited from earlier work
[23] = system: CYP2B6; conditions: at higher concentrations, recombinant CYP microsomes; cited from earlier work
[24] = patients, cited from earlier work
[25] = system: trypsin-like activity of the 20S proteasome; conditions: relative to β5 and LMP7; cited from earlier work
[26] = design: method as in PMID 30128949; conditions: AUC0–816h time-proportional pooled plasma, single 4.1-mg oral dose [14C]-ixazomib, four patients; cited from earlier work
[27] = system: caspase-like activity of the 20S proteasome; conditions: relative to β5 and LMP7; cited from earlier work
[28] = design: method as in PMID 34234005; conditions: absence of NADPH; cited from earlier work
[29] = system: LMP2; design: method as in PMID 30380863; conditions: mouse arthritis model, active dose; cited from earlier work
[30] = system: LMP7; design: method as in PMID 30380863; conditions: mouse arthritis model, active dose; cited from earlier work
[31] = PK of KZR-616 and analogs after single SC dose in monkeys; conditions: cynomolgus monkey, in vivo, single SC dose 3 mg/kg
Method: (§1) To further evaluate the role of epoxide hydrolase in the metabolism of KZR-616, two analogs were selected for PK and PD studies in cynomolgus monkey to compare with KZR-616. […] Following single subcutaneous (SC) administration to monkeys at 3 mg/kg of these 3 compounds AUC values were the highest with KZR-59240, followed by KZR-616 and KZR-59177. The PK of both parent and diol for each compound were consistent with the stability results in MLM in the absence of NADPH, in which the CYP enzymes were not activated (Table 3), and, as predicted, the diol derivatives were determined to be the major metabolites for all compounds. The PK and PD of KZR-616 was assessed using 2 different drug product formulations, one containing 10% (w/v) PS-80, and the other 2% (w/v) trehalose.

[32] = KZR-616 and metabolites in human plasma of SLE patients; format: in vivo; conditions: KZR-616 75 mg
Method: Following repeat-dose SC administration, there was no apparent accumulation of immunoproteasome inhibition, although cumulative constitutive proteasome inhibition in whole blood was observed, likely due to the irreversible mechanism of KZR-616 inhibition and the inability of enucleated red blood cells (the major cellular source of constitutive proteasome) to produce new proteasomes. […] As in carfilzomib, and oprozomib, KZR-616 was not stable when incubated in HLMs in the absence of NADPH, indicating non-CYP enzymes were involved in its clearance. […] In pooled plasma samples from 4 patients with systemic lupus erythematous (SLE) receiving a KZR-616 dose of 75 mg, the diol was the major metabolite, and other metabolites from oxidation, hydrolysis + dehydrogenation, oxidation + dehydrogenation double oxidation were less than 1% of the total peak area of all components (Table 2).

[33] = healthy volunteers, SC; cited from earlier work
[34] = PK of KZR-616 in two drug product formulations; format: in vivo; conditions: 10% (w/v) PS-80 vs 2% (w/v) trehalose formulation
Method: as §1

[35] = single agent, cited from earlier work
[36] = design: method as in PMID 19348473; conditions: mice; cited from earlier work
[37] = system: proteasome; design: method as in PMID 31142508; conditions: at MTD, 4 h post-dose; cited from earlier work
[38] = design: method as in PMID 19348473; conditions: rats; cited from earlier work
[39] = design: method as in PMID 19348473; conditions: dogs; cited from earlier work
[40] = design: method as in PMID 28428366; conditions: pooled HLMs, cited from earlier work
[41] = design: method as in PMID 28428366; conditions: human hepatocytes, quantified with synthesized standards; cited from earlier work

In the case of `CC(C)C[C@H](NC(=O)[C@H](Cc1ccccc1)NC(=O)c1cnccn1)B(O)O` [Bortezomib], the “variation of plasma concentration” value ([1]; 1 h post-dose) is listed as ~ 800%, the “increase in bortezomib exposure” value ([1]; DDI, plus ketoconazole (CYP3A4 inhibitor), patients) is listed as 1.4 fold and the Absorption [2] is listed as “fast”. The Clearance [2] was “fast”, the “Subunit Inhibition” value [3] was “ß5 and LMP7” and the IC50 [4] was > 18 µM. For the same molecule, the IC50 [5] was > 18 µM, the IC50 [6] was > 18 µM and the “Metabolic Pathwas” value [7] was “Hydrolases, CYPs”. The “CYP450 IC50 values higher than Cmax” value [8] was 60 fold, the IC50 [9] was > 18 µM and the IC50 [10] was > 18 µM. For the same molecule, the “variation of proteasome inhibition” value ([11]; 1 h post-dose) was ~ 70%, the “recovery of proteasome activity” value ([11]; 12 h after administration) was 50% and the “Time to Emax (median)” value ([11]; IV administration) was 5 min. For the same molecule, the “mean maximum inhibition (Emax)” value ([11]; IV administration) was “approximately 69%”, the “Time to Emax (median)” value ([11]; SC administration) was 120 min and the “time to complete recovery of proteasome activity” value ([11]; after administration) was ≤ 72 h. The “time to full recovery of proteasome activity” value ([11]; after dosing) was 36 h, the “time by which recovery of proteasome activity was observed” value ([11]; assessed at 1, 6 and 24 h) was ≤ 24 h and the “inhibition of 20S proteasome activity” value ([11]; 0.40 mg/m2) was 36%. The “inhibition of 20S proteasome activity” value ([11]; 1.04 mg/m2) was 60%, the “inhibition of 20S proteasome activity” value ([11]; 1.20 mg/m2) was 65% and the “inhibition of 20S proteasome activity” value ([11]; 1.38 mg/m2) was 74%.
For `CC(C)C[C@H](NC(=O)[C@H](CCc1ccccc1)NC(=O)CN1CCOCC1)C(=O)N[C@@H](Cc1ccccc1)C(=O)N[C@@H](CC(C)C)C(=O)[C@@]1(C)CO1` [Carfilzomib], the “average inhibition of β5” value [12] is listed as “greater than 83%”, the “rates of peripheral neuropathy lower than with bortezomib” value [13] is listed as > 60% and the “Subunit Inhibition” value [3] is listed as “ß5 and LMP7”. The t1/2 [14] was < 0.5 h, the dose excreted intact [15] was “less than 1%” and the “time proteasome inhibition was maintained” value [16] was ≥ 48 h. The “inhibition of β2” value [17] was “Less than 18%”, the “average inhibition of LMP7” value [18] was “greater than 83%” and the “inhibition of β1” value [19] was “Less than 18%”.
For `CC(C)C[C@H](NC(=O)CNC(=O)c1cc(Cl)ccc1Cl)B(O)O` [Ixazomib], the contribution to metabolism [20] is given as 26%, the Absorption [2] is given as “fast” and the Clearance [2] is given as “fast”. The “Subunit Inhibition” value [3] was “ß5 and LMP7”, the contribution to metabolism [21] was 42% and the “time to recovery of proteasome inhibition” value [22] was ≤ 24 h. For the same molecule, the contribution to metabolism [23] was 16%, the “Metabolic Pathwas” value [7] was “Hydrolases, CYPs” and the Tmax ([24]; oral) was “approximately 1 h”. The apparent clearance [24] was ~ 1.9 L/h, the “less potency than for chymotrypsin-like activities” value [25] was 1000 fold and the “% of plasma TRA” value [26] was 54.2%. For the same molecule, the “less potency than for chymotrypsin-like activities” value [27] was 10 fold.
For `COc1ccc([C@@H](O)[C@H](NC(=O)[C@H](C)NC(=O)CN2CCOCC2)C(=O)N[C@@H](CC2=CCCC2)C(=O)[C@@]2(C)CO2)cc1` [KZR-616, (2S,3R)-N-((S)-3-(Cyclopent-1-en-1-yl)-1-((R)-2-methyloxiran-2-yl)-1oxopropan-2-yl)-3-hydroxy-3-(4-methoxyphenyl)-2-((S)-2-(2morpholinoacetamido)propanamido)propenamide], the “stability in HLMs” value [28] is listed as “not stable”, the LMP2 inhibition [29] is listed as ~ 40% and the LMP7 inhibition [30] is listed as “complete”. For the same molecule, the AUC(0-inf) [31] was 740 ± 188 ng·h/mL, the Cmax [31] was 441 ± 114 ng/mL and the Tmax [31] was 0.333 ± 0.136 h. The half-life [31] was 1.05 ± 0.13 h, the Absorption [2] was “fast” and the Clearance [2] was “fast”. For the same molecule, the “Subunit Inhibition” value [3] was “LMP2 and LMP7”, the “Metabolic Pathwas” value [7] was “Microsomal epoxide hydrolase” and the “Component in Plasma as % of Total XIC (Extracted Ion Chromatogram) Area” value (“Component in Plasma as % of Total XIC” below) ([32]; Subject 110-004, SLE patient) was 61.2%. The “Component in Plasma as % of Total XIC” value ([32]; Subject 112-021, SLE patient) was 49.0%, the “Component in Plasma as % of Total XIC” value ([32]; Subject 113-002, SLE patient) was 46.5% and the “Component in Plasma as % of Total XIC” value ([32]; Subject 116-012, SLE patient) was 51.8%. For the same molecule, the Tmax [33] was < 1 h, the t1/2 [33] was < 4 h and the “difference in Cmax between formulations” value [34] was 2 fold. For the same molecule, the “total exposure (AUC) in both formulations” value [34] was “equivalent”.
In the case of `COc1ccc(C(O)C(NC(=O)C(C)NC(=O)CN2CCOCC2)C(=O)NC(CC2=CCCC2)C(=O)C(C)(O)CO)cc1` (stereo not shown) [KZR-59587], the “Component in Plasma as % of Total XIC” value ([32]; Subject 110-004, SLE patient) is reported as 33.8%, the “Component in Plasma as % of Total XIC” value ([32]; Subject 112-021, SLE patient) is reported as 45.8% and the “Component in Plasma as % of Total XIC” value ([32]; Subject 113-002, SLE patient) is reported as 47.9%. For the same molecule, the “Component in Plasma as % of Total XIC” value ([32]; Subject 116-012, SLE patient) was 43.8%.
In the case of `CC(C)C[C@@H](O)NC(=O)[C@H](Cc1ccccc1)NC(=O)c1cnccn1` [M1], the “% of plasma TRA” value [26] is given as 18.9%.
In the case of `CC(C)C[C@H](O)NC(=O)[C@H](Cc1ccccc1)NC(=O)c1cnccn1` [M2], the “% of plasma TRA” value [26] is given as 7.91%.
For `NC(=O)[C@H](Cc1ccccc1)NC(=O)c1cnccn1` [M3], the “% of plasma TRA” value [26] is listed as 10.6%.
In the case of `COC[C@H](NC(=O)c1cnc(C)s1)C(=O)N[C@@H](COC)C(=O)N[C@@H](Cc1ccccc1)C(=O)[C@@]1(C)CO1` [Oprozomib], the “maximum tolerated dose (MTD)” value ([35]; first 2 days every 7 days of a 14-day cycle (2/7 schedule)) is listed as 300 mg/day, the “maximum tolerated dose (MTD)” value ([35]; first 5 days of a 14-day cycle (5/14 schedule)) is listed as 240 mg/day and the “oral bioavailability F%” value [36] is listed as 17%. For the same molecule, the proteasome inhibition [37] was ≥ 70%, the Absorption [2] was “fast” and the Clearance [2] was “fast”. The “oral bioavailability F%” value [38] was 21%, the “Subunit Inhibition” value [3] was “ß5 and LMP7” and the “oral bioavailability F%” value [39] was 39%. The “Metabolic Pathwas” value [7] was “Microsomal epoxide hydrolase peptidases, CYPs”, the intrinsic clearance ([40]; absence of NADPH) was 20.2 ± 1.8 µL/min/mg protein and the intrinsic clearance ([40]; presence of NADPH) was 70.7 ± 2.9 µL/min/mg protein. For the same molecule, the “increase of intrinsic clearance by NADPH” value ([40]; presence vs absence of NADPH) was 3.5 fold and the “percent of total oprozomib recovered as component” value (from here on “percent”) [41] was 20%.
For `COC[C@H](NC(=O)c1cnc(C)s1)C(=O)N[C@@H](COC)C(=O)N[C@@H](Cc1ccccc1)C(=O)[C@](C)(O)CO` [PR-176], the “percent” value [41] is listed as ~ 55%.
In the case of `C[C@@](O)(CO)C(=O)[C@@H](N)Cc1ccccc1` [diol of PR-025], the “percent” value [41] is listed as ~ 7%.

— article PMC8583966, “Proteasome Inhibitors and Their Pharmacokinetics, Pharmacodynamics, and Metabolism” (International Journal of Molecular Sciences, 2021)
